# Laboratory results: PMC7979807, “A 37-amino acid loop in the Yarrowia lipolytica hexokinase impacts its activity and affinity and modulates gene expression” (Scientific Reports, 2021)
# Legend:
# Assay in all cases: Hexokinase Colorimetric Assay Kit, whole-cell extract, […] hexose
# Format in all cases: biochemical
# YlHxk1 [1] = target: T1, YlHxk1 (Yarrowia lipolytica, UniProt F2Z672); settings: reference enzyme of the fold scale, no absolute Km of this study printed; otherwise same
# T1 construct: gene YALI0_B22308g; full-length, 534 residues, untagged; pTEF overexpression in Y. lipolytica Po1d hxk1 glk1; whole-cell extract; gene from W29 genomic DNA
# T1 sequence (F2Z672 1-534): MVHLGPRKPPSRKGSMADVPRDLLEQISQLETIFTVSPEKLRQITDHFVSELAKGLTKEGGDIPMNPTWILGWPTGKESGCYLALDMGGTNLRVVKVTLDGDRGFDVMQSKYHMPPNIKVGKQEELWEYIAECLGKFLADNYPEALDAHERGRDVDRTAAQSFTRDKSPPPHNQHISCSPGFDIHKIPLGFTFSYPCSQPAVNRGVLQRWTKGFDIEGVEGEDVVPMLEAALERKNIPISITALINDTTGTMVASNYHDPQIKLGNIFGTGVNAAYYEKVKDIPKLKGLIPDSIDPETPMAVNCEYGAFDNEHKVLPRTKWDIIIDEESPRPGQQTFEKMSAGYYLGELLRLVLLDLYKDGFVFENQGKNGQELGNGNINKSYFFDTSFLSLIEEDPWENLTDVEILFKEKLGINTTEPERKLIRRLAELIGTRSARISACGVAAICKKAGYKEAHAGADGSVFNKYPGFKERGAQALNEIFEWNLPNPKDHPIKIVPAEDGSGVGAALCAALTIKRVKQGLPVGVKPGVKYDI
# YlHxk1 [2] = target: T2, YlHxk1 (Yarrowia lipolytica, UniProt F2Z672, DEL7-15); settings: relative to YlHxk1, absolute Km not given; extract 30 µg/mL protein in PBS pH 7.4; host hxk1 glk1
# T2 construct: gene YALI0_B22308g; full-length, 534 residues, untagged; pTEF overexpression in Y. lipolytica Po1d hxk1 glk1; whole-cell extract; gene from W29 genomic DNA
# T2 sequence (F2Z672 entry or part of it DEL7-15): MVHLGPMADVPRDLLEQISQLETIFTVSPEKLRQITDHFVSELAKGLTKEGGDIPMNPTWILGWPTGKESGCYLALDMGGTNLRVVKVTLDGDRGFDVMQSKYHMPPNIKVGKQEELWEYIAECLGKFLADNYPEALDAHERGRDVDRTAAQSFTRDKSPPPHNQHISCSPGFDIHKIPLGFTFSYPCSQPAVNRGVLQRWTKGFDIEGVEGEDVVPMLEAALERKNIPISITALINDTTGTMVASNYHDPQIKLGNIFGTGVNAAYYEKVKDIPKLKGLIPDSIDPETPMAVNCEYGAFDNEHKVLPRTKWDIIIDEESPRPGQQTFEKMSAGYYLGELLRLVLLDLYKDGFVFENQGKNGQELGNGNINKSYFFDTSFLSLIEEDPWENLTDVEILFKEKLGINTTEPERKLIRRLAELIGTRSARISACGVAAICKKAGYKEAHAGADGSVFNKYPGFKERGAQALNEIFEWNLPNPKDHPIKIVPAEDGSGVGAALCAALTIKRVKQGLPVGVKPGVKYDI
# YlHxk1 [3] = target: T3, YlHxk1 (Yarrowia lipolytica, UniProt F2Z672, DEL155-182); settings: relative to YlHxk1, absolute Km not given; extract 30 µg/mL protein in PBS pH 7.4; host hxk1 glk1
# T3 construct: gene YALI0_B22308g; full-length, 534 residues, untagged; pTEF overexpression in Y. lipolytica Po1d hxk1 glk1; whole-cell extract; gene from W29 genomic DNA
# T3 sequence (F2Z672 entry or part of it DEL155-182): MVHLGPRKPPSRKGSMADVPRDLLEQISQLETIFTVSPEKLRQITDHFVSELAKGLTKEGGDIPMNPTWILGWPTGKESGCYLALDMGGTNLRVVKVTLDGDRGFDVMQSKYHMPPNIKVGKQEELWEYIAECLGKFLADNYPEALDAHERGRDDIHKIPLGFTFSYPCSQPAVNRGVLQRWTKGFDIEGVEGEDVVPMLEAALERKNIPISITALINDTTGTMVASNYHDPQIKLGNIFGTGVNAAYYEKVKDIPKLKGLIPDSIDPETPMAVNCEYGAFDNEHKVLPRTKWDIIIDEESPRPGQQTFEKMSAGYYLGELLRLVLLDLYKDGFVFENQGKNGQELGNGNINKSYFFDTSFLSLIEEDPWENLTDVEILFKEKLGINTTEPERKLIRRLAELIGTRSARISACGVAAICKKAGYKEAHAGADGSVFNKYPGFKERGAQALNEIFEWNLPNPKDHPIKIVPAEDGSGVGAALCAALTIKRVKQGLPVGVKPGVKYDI
# YlHxk1 [4] = target: T4, YlHxk1 (Yarrowia lipolytica, UniProt F2Z672, E500G); settings: relative to YlHxk1, absolute Km not given; extract 30 µg/mL protein in PBS pH 7.4; host hxk1 glk1
# T4 construct: gene YALI0_B22308g; full-length, 534 residues, untagged; pTEF overexpression in Y. lipolytica Po1d hxk1 glk1; whole-cell extract; gene from W29 genomic DNA
# T4 sequence (F2Z672 entry or part of it E500G): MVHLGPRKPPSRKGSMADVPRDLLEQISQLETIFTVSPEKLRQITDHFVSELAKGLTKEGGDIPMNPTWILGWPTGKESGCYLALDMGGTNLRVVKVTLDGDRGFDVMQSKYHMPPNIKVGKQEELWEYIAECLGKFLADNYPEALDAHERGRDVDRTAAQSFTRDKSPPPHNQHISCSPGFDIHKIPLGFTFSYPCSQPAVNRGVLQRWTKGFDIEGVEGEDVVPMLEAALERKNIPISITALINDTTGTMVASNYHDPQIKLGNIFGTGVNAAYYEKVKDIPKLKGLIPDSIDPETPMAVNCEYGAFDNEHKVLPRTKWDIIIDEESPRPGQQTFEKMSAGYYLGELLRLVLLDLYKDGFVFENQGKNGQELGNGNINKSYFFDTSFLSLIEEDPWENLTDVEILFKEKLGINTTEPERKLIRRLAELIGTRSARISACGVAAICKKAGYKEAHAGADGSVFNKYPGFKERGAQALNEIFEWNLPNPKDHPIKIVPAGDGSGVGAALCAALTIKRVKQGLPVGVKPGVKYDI
# ScHxk2 [5] = target: T5, ScHxk2 (Saccharomyces cerevisiae, UniProt P04807); settings: relative to YlHxk1, absolute Km not given; extract 30 µg/mL protein in PBS pH 7.4; host hxk1 glk1
# T5 construct: gene HXK2; full-length, untagged; pTEF overexpression in Y. lipolytica Po1d hxk1 glk1; whole-cell extract
# T5 sequence (P04807 2-486): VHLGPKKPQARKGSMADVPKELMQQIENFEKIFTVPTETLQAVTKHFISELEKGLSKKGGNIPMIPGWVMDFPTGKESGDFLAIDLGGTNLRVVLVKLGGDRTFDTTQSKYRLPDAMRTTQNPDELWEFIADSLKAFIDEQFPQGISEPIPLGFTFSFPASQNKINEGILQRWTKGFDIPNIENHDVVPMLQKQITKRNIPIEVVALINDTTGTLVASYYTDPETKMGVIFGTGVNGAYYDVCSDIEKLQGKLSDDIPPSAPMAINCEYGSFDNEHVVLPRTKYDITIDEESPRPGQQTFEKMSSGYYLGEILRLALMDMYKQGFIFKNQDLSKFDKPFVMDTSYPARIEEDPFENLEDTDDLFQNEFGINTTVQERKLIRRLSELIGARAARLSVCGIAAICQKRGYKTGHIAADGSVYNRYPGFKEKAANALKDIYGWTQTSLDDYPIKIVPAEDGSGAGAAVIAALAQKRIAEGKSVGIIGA
# YlHxk1 [6] = target: T3, YlHxk1; settings: relative to YlHxk1, absolute Km not given; extract 30 µg/mL protein in PBS pH 7.4; host hxk1 glk1; remark: listed apart in the source
# ScHxk2 [7] = target: T5, ScHxk2; settings: relative to YlHxk1, absolute Km not given; extract 30 µg/mL protein in PBS pH 7.4; host hxk1 glk1; remark: listed apart in the source
# YlHxk1 [8] = target: T2, YlHxk1; settings: relative to YlHxk1, absolute Km not given; extract 30 µg/mL protein in PBS pH 7.4; host hxk1 glk1; remark: listed apart in the source
# YlHxk1 [9] = target: T4, YlHxk1; settings: relative to YlHxk1, absolute Km not given; extract 30 µg/mL protein in PBS pH 7.4; host hxk1 glk1; remark: listed apart in the source
20 mM glucose (YlHxk1 [1]) [fold vs YlHxk1],relative hexokinase activity on 20 mM fructose (YlHxk1 [2]) [fold vs YlHxk1],"hexokinase activity with 20 mM fructose, relative to YlHxk1 (YlHxk1 [3]) [fold vs YlHxk1]",relative hexokinase activity at 20 mM fructose (YlHxk1 [4]) [fold vs YlHxk1],relative hexokinase activity with 20 mM fructose (ScHxk2 [5]) [fold vs YlHxk1],20 mM glucose (YlHxk1 [6]) [fold vs YlHxk1],20 mM glucose (ScHxk2 [7]) [fold vs YlHxk1],20 mM glucose (YlHxk1 [8]) [fold vs YlHxk1],relative hexokinase activity at 20 mM glucose (YlHxk1 [9]) [fold vs YlHxk1],SMILES
1.00,3.98 ± 0.67,2.80 ± 0.28,0.53 ± 0.15,8.00 ± 0.76,,,,,OCC1(O)OC[C@@H](O)[C@@H](O)[C@@H]1O (stereo partly shown) [fructose]
1.00,,,,,2.05 ± 0.32,1.22 ± 0.16,0.18 ± 0.03,2.50 ± 0.24,OC[C@H]1OC(O)[C@H](O)[C@@H](O)[C@@H]1O (stereo partly shown) [glucose]
